For the series the following is noted: Crystal; triple pt. cell.

The structures appear in SMILES notation. Numbers after ± are expanded uncertainties.

As for `[22Ne]` [neon-22], the Triple point temperature came out at 24.69 ± 8e-05 K.

For `[20Ne]` [neon-20], the Triple point temperature is on record as 24.54 ± 8e-05 K.

The record behind these values is the NIST ThermoML archive (doi:10.1007/s10765-011-0939-5).
